Laboratory results published in patent publication US4024224A, “14-Aminodaunomycins, their preparation and use” (priority 1974, dated 1977).
Values after ≈ are worked out from the molar mass of the structure shown. Like-named read-outs stand apart in the source and are kept apart here.

Experiments:
Mouse Embryo Fibroblasts = assay: Proliferation of uninfected mouse embryo fibroblasts (MEF); assay type: cell-based; conditions: Mus musculus, Fibroblast, 72 h, read-out: MEF No. of cells
Description: (§1) Mouse embryo fibroblasts (MEF) were plated on 35 mm. Falcon plastic dishes and infected 24 hours later with Moloney Sarcoma Virus (MSV) in the presence of DEAE-dextran (25 μg./ml.). The samples were then treated for 3 days with different concentrations of the compounds of the invention. The number of foci of transformed cells was microscopically determined 5 days after the infection. Uninfected MEF were similarly treated and at the end of the experiment, the cells were counted in an haemocytometer. In all the experiments, the cells were incubated in a 5% CO2 incubator at 37° C.
(§2) For use in these tests the compounds were dissolved in distilled water or in 5% ethyl alcohol in distilled water and then diluted in culture medium.

[1] = as above; assay type: cell-based; conditions: mouse, mouse embryo fibroblasts
Description: as §1, §2

[2] = test system: Moloney Sarcoma Virus (MSV); assay: Inhibition of MSV-M foci formation in mouse embryo fibroblasts; assay type: cell-based; conditions: Fibroblast, 120 h; for IC50: read-out: MSV-M foci ID 50 (Inhibiting Dose 50%)
Description: as §1, §2
The results of these tests are reported in Table I in terms of ID50 values (Inhibiting Dose 50%), calculated on dose-effects lines.

[3] = Antitumor activity and toxicity on ascites Sarcoma 180 in CD 1 mice; assay type: in vivo; conditions: mouse, in vivo, ip, read-out: % Toxic Deaths
Description: (§3) The antitumor activity of the compounds of the invention was tested on ascites Sarcoma 180.
(§4) Three month old CD 1 mice were used. Sarcoma 180 ascites cells were inoculated intraperitoneally (10^6 cells/mouse). For use in these tests, the compounds were dissolved in distilled water or in 5% ethyl alcohol in distilled water, then diluted with Ringers solution and administered i.p. 1 day after the tumor implant (10 ml./kg. of body weight).
(§5) The toxicity of the test compounds was evaluated by macroscopic autoptic examination mainly in terms of reduction in spleen size. The comparison of the effectiveness of the test compounds is based on the maximum increase in median survival time, as compared to untreated controls, over the dose range used. The number of Long Term Survivors (LTS) refers to tumor-free mice at the end of the experiment (60 days). Solid Sarcoma 180 was implanted subcutaneously by trocar in the flank of CD 1 mice according to standard methods. The mice were treated i.v. for 5 consecutive days, starting 1 day after the tumor implant. On the 11th day the tumor volume was measured by means of a caliper and evaluated according to the formula (a^2 × b)/2, a and b being the minimum and the maximum diameters respectively.

ascites Sarcoma 180 = assay: as above; assay type: in vivo; conditions: for % LTS: 60 days; for LTS (Long Term Survivors after 60 days): survivors/total; for Toxic Deaths: deaths/total
Description: as §3, §4, §5

Solid Sarcoma 180 = assay: Antitumor activity and toxicity on solid Sarcoma 180 in CD 1 mice; assay type: in vivo; conditions: for Tumor Volume T/C %: 11th day; for Toxic Deaths: deaths/total
Description: as §5

[4] = calculated on dose-effects lines, uninfected MEF, 3 days treatment, read-out: MEF proliferation ID 50 (Inhibiting Dose 50%)
[5] = 0.2 mg./kg. i.p. 1 day after tumor implant
[6] = 1 mg./kg. i.p. 1 day after tumor implant
[7] = 5 mg./kg. i.p. 1 day after tumor implant
[8] = 25 mg./kg. i.p. 1 day after tumor implant
[9] = 50 mg./kg. i.p. 1 day after tumor implant
[10] = 100 mg./kg. i.p. 1 day after tumor implant
[11] = 3 mg./kg. i.v. for 5 consecutive days
[12] = 4 mg./kg. i.v. for 5 consecutive days
[13] = 5 mg./kg. i.v. for 5 consecutive days
[14] = 10 mg./kg. i.p. 1 day after tumor implant

COc1cccc2c1C(=O)c1c(O)c3c(c(O)c1C2=O)C[C@@](O)(C(=O)CN1CCOCC1)C[C@@H]3O[C@H]1C[C@H](N)[C@H](O)[C@H](C)O1 [14-(N-morpholino)-daunomycin]
activity at 0.0062 µg/mL (Mouse Embryo Fibroblasts; dose 0.0062 μg/ml, uninfected MEF, 3 days treatment): 81%
activity at 0.025 µg/mL (Mouse Embryo Fibroblasts; dose 0.0250 μg/ml, uninfected MEF, 3 days treatment): 68%
activity at 0.1 µg/mL (Mouse Embryo Fibroblasts; dose 0.1 μg/ml, uninfected MEF, 3 days treatment): 31%
activity at 0.4 µg/mL (Mouse Embryo Fibroblasts; dose 0.4 μg/ml, uninfected MEF, 3 days treatment): 21%
IC50 at 72 h [1, 4]: 500 ng/mL (≈ 0.816 µM)
IC50 ([2]; calculated on dose-effects lines, 3 days treatment): 32 ng/mL (≈ 0.0522 µM)
activity at 0.0062 µg/mL ([2]; dose 0.0062 μg/ml, 3 days treatment, foci counted 5 days after infection, read-out: MSV-M No. of foci): 78%
activity at 0.025 µg/mL ([2]; dose 0.0250 μg/ml, 3 days treatment, foci counted 5 days after infection, read-out: MSV-M No. of foci): 69%
activity at 0.1 µg/mL ([2]; dose 0.1 μg/ml, 3 days treatment, foci counted 5 days after infection, read-out: MSV-M No. of foci): 17%
activity at 0.4 µg/mL ([2]; dose 0.4 μg/ml, 3 days treatment, foci counted 5 days after infection, read-out: MSV-M No. of foci): 0%
mortality ([3]; 0.2 mg./kg. i.p.): 0%
mortality ([3]; 1 mg./kg. i.p.): 0%
mortality ([3]; 5 mg./kg. i.p.): 0%
mortality ([3]; 25 mg./kg. i.p.): 0%
mortality ([3]; 50 mg./kg. i.p.): 14%
mortality ([3]; 100 mg./kg. i.p.): 85%
T/C (median survival time, % over untreated controls) (ascites Sarcoma 180; [5]): 103%
% LTS (ascites Sarcoma 180; [5]): 0%
LTS (Long Term Survivors after 60 days) (ascites Sarcoma 180; [5]): 0/10
Toxic Deaths (ascites Sarcoma 180; 0.2 mg./kg. i.p.): 0/10
T/C (median survival time, % over untreated controls) (ascites Sarcoma 180; [6]): 111%
% LTS (ascites Sarcoma 180; [6]): 0%
LTS (Long Term Survivors after 60 days) (ascites Sarcoma 180; [6]): 0/10
Toxic Deaths (ascites Sarcoma 180; 1 mg./kg. i.p.): 0/10
T/C (median survival time, % over untreated controls) (ascites Sarcoma 180; [7]): 133%
% LTS (ascites Sarcoma 180; [7]): 30%
LTS (Long Term Survivors after 60 days) (ascites Sarcoma 180; [7]): 3/10
Toxic Deaths (ascites Sarcoma 180; 5 mg./kg. i.p.): 0/10
T/C (median survival time, % over untreated controls) (ascites Sarcoma 180; [8]): 223%
% LTS (ascites Sarcoma 180; [8]): 29%
LTS (Long Term Survivors after 60 days) (ascites Sarcoma 180; [8]): 5/17
Toxic Deaths (ascites Sarcoma 180; 25 mg./kg. i.p.): 0/17
T/C (median survival time, % over untreated controls) (ascites Sarcoma 180; [9]): 100%
% LTS (ascites Sarcoma 180; [9]): 0%
LTS (Long Term Survivors after 60 days) (ascites Sarcoma 180; [9]): 0/7
Toxic Deaths (ascites Sarcoma 180; 50 mg./kg. i.p.): 1/7
T/C (median survival time, % over untreated controls) (ascites Sarcoma 180; [10]): 50%
% LTS (ascites Sarcoma 180; [10]): 14%
LTS (Long Term Survivors after 60 days) (ascites Sarcoma 180; [10]): 1/7
Toxic Deaths (ascites Sarcoma 180; 100 mg./kg. i.p.): 6/7
Tumor Volume T/C % (Solid Sarcoma 180; [11]): 77%
Toxic Deaths (Solid Sarcoma 180; [11]): 0/10
Tumor Volume T/C % (Solid Sarcoma 180; [12]): 64%
Toxic Deaths (Solid Sarcoma 180; [12]): 0/10
Tumor Volume T/C % (Solid Sarcoma 180; [13]): 69%
Toxic Deaths (Solid Sarcoma 180; [13]): 0/10

COc1cccc2c1C(=O)c1c(O)c3c(c(O)c1C2=O)C[C@@](O)(C(=O)CO)C[C@@H]3O[C@H]1C[C@H](N)[C@H](O)[C@H](C)O1 [Adriamycin, reference compound]
activity at 0.0062 µg/mL (Mouse Embryo Fibroblasts): 61%
activity at 0.0125 µg/mL (Mouse Embryo Fibroblasts): 42%
activity at 0.025 µg/mL (Mouse Embryo Fibroblasts): 37%
IC50 at 72 h [1, 4]: 10 ng/mL (≈ 0.0184 µM)
activity at 0.0062 µg/mL ([2]; read-out: MSV-M No. of foci): 46%
activity at 0.0125 µg/mL ([2]; read-out: MSV-M No. of foci): 24%
activity at 0.025 µg/mL ([2]; read-out: MSV-M No. of foci): 0%
IC50 [2]: 5 ng/mL (≈ 0.0092 µM)
mortality ([3]; 0.2 mg./kg. i.p.): 0%
mortality ([3]; 1 mg./kg. i.p.): 0%
mortality ([3]; 5 mg./kg. i.p.): 10%
mortality ([3]; 10 mg./kg. i.p.): 20%
% LTS (ascites Sarcoma 180; [5]): 16%
LTS (Long Term Survivors after 60 days) (ascites Sarcoma 180; [5]): 5/30
Toxic Deaths (ascites Sarcoma 180; 0.2 mg./kg. i.p.): 0/30
T/C (median survival time, % over untreated controls) (ascites Sarcoma 180; [6]): 177%
% LTS (ascites Sarcoma 180; [6]): 45%
LTS (Long Term Survivors after 60 days) (ascites Sarcoma 180; [6]): 13/29
Toxic Deaths (ascites Sarcoma 180; 1 mg./kg. i.p.): 0/29
T/C (median survival time, % over untreated controls) (ascites Sarcoma 180; [7]): 200%
% LTS (ascites Sarcoma 180; [7]): 19%
LTS (Long Term Survivors after 60 days) (ascites Sarcoma 180; [7]): 9/47
Toxic Deaths (ascites Sarcoma 180; 5 mg./kg. i.p.): 5/47
% LTS (ascites Sarcoma 180; [14]): 0%
LTS (Long Term Survivors after 60 days) (ascites Sarcoma 180; [14]): 0/10
Toxic Deaths (ascites Sarcoma 180; 10 mg./kg. i.p.): 2/10

COc1cccc2c1C(=O)c1c(O)c3c(c(O)c1C2=O)C[C@@](O)(C(C)=O)C[C@@H]3O[C@H]1C[C@H](N)[C@H](O)[C@H](C)O1 [Daunomycin]
activity at 0.0062 µg/mL (Mouse Embryo Fibroblasts): 55%
activity at 0.0125 µg/mL (Mouse Embryo Fibroblasts): 45%
activity at 0.025 µg/mL (Mouse Embryo Fibroblasts): 22%
IC50 at 72 h [1]: 8.6 ng/mL (≈ 0.0163 µM)
activity at 0.0062 µg/mL ([2]; read-out: MSV-M No. of foci): 51%
activity at 0.0125 µg/mL ([2]; read-out: MSV-M No. of foci): 17%
activity at 0.025 µg/mL ([2]; read-out: MSV-M No. of foci): 0%
IC50 [2]: 6 ng/mL (≈ 0.0114 µM)
mortality ([3]; 0.2 mg./kg. i.p.): 0%
mortality ([3]; 1 mg./kg. i.p.): 0%
mortality ([3]; 5 mg./kg. i.p.): 15%
T/C (median survival time, % over untreated controls) (ascites Sarcoma 180; [5]): 106%
% LTS (ascites Sarcoma 180; [5]): 5%
LTS (Long Term Survivors after 60 days) (ascites Sarcoma 180; [5]): 1/20
Toxic Deaths (ascites Sarcoma 180; 0.2 mg./kg. i.p.): 0/20
T/C (median survival time, % over untreated controls) (ascites Sarcoma 180; [6]): 193%
% LTS (ascites Sarcoma 180; [6]): 45%
LTS (Long Term Survivors after 60 days) (ascites Sarcoma 180; [6]): 9/20
Toxic Deaths (ascites Sarcoma 180; 1 mg./kg. i.p.): 0/20
T/C (median survival time, % over untreated controls) (ascites Sarcoma 180; [7]): 173%
% LTS (ascites Sarcoma 180; [7]): 15%
LTS (Long Term Survivors after 60 days) (ascites Sarcoma 180; [7]): 3/20
Toxic Deaths (ascites Sarcoma 180; 5 mg./kg. i.p.): 3/20
